In data set [1] the test system is Mac-1 overexpressing cells. Conditions: reference (37); cited from earlier work.
The test system of data set [2] is PLP139-151 EAE in SJL/J mice. The data set is described as follows: PLP139-151 EAE after vaccination with γ^377-395 peptide. The format is in vivo, mouse. As for the experimental part:
Induction of EAE. EAE was induced in 6 week old female SJL/J or C57BL/6 mice by subcutaneous immunization with 150 μg PLP139-151 (HSLGKWLGHPDKF) (SEQ ID NO: 5). American Peptide Company and Azco Pharmchem, San Jose, Calif.) or 50 μg MOG35-55 ([…]) (SEQ ID NO: 6), Sigma-Aldrich, St. Louis, Mo.) in complete Freund's adjuvant (Sigma-Aldrich, St. Louis, Mo.) supplemented with […] heat inactivated mycobacterium tuberculosis H37Ra (Difco Laboratories, Detroit, Mich.). Mice were injected intravenously with 200 ng pertussis toxin (Sigma-Aldrich, St. Louis, Mo.) on days 0 and 2 of the immunization. Mice were scored daily. 0: no symptoms, 1: loss of tail tone, 2: ataxia, 3: hindlimb paralysis, 4: hindlimb and forelimb paralysis, 5: moribund Data are represented as the mean clinical score and are mean±SEM. Statistical calculations were made by using Student's t test.
Fibrinogen γ^377-395 peptide vaccination. Vaccination was performed as described (56) with the following modifications. Five week old female SJL/J mice were immunized with 200 μg fibrinogen γ^377-395 peptide (YSMKETTMKIIPFNRLSIG) (SEQ ID NO: 2), Azco Pharmchem, San Jose, Calif.) emulsified with an equal volume of incomplete freund's adjuvant (Sigma-Aldrich, St. Louis, Mo.). Mice were immunized four times in alternating rear flanks over the course of two weeks. Control animals were immunized with incomplete Freund's adjuvant.
Histopathology. Histopathologic analysis and quantification of inflammation and demyelination in mouse tissue was performed on cryostat or paraffin sections as described (57). Sections were stained with luxol fast blue and nuclear red. Spinal cord sections were fixed with 2% PFA for 10 minutes at 4° C. and immunostained with a sheep anti-fibrinogen antibody (1:200, US Biological, Swampscott, Mass.), rat anti-CD11b (1:5, Chemicon), von Willebrand Factor (1:1000, Dakocytomation, Glostrup, Denmark), iNOS (polyclonal Chemicon, Temecula, Calif., 1:750), Mac-3 (rat-anti-mouse, Pharmingen, San Diego, Calif., 1:200), CNPase (monoclonal, Sternberger monoclonals, Lutherville, Md., 1:2000). For human MS, paraffin embedded material was obtained from the Archives of the Center for Brain Research, Medical University of Vienna. Double immunofluorescence was performed with antibodies against CD68 and fibrin. Images were collected using an Axioplan 2 Zeiss microscope with an Axiocam HRc camera or were processed for confocal microscopy using Olympus and Zeiss confocal microscopes.
Rotarod behavior test. The rotarod assay was performed on a TSE accelerating Rotarod apparatus (TSE Technical and Scientific Equipment GmbH) as described (58). Rotarod assays were conducted with a 300 second maximum time limit and means were collected for at least three trials. Statistical calculations were made by using Students t test.

Data set [3] relates to splenocytes. The data set can be described thus: FACS analysis of splenocytes for peripheral immune cell markers. The following applies: peptide-treated vs untreated PLP139-151 immunized mice, day 29. The format is in vivo, mouse. An excerpt:
FACS Analysis. Primary mouse splenocytes were isolated from control and γ^377-395 peptide-treated mice, immunized with PLP139-151, on day 29 after immunization. Cells were immunostained with antibodies to CD4, CD8, CD11b, CD11c, CD19, B220 (1:100, Biolegend, San Diego, Calif.) and analyzed on a Becton Dickinson FACSCalibur flow cytometer.

For data set [4], the system named is Akt. The data set can be described thus: Akt phosphorylation immunoblot in microglia. The following applies: for effect on fibrin-mediated phosphorylation of Akt: microglia on fibrinogen plus peptide; for effect on LPS-mediated phosphorylation of Akt: microglia with LPS plus peptide. The format is cell-based, mouse. As for the experimental part: Immunoblots. Western blots were performed using standard protocols (55). Microglia were serum-starved overnight and plated on fibrinogen or with LPS for 6 hours. Lysates were electrophoresed on 4-12% gradient SDS-PAGE gels and probed with phospho and total Akt antibodies (1:1000, Cell Signaling, Beverly, Mass.). RhoA activation was performed as described (60). Briefly, 2×107 microglia were plated on fibrinogen for 6 hours or with LPS for 10 minutes. Cell lysates were incubated with GST-Rhotekin agarose beads (kindly provided by Dr. Joan Heller Brown, UCSD) for 45 minutes at 4° C. The beads were washed, resuspended in Laemmli sample buffer, and electophoresed on a 15% SDS-PAGE gel. Activated and total Rho were detected with mouse anti-RhoA (1:500, Santa Cruz Biotechnology, Santa Cruz, Calif.). Densitometry was performed using the NIH Scion Image software using three blots from three separate experiments.
(In general: A western blot detects proteins with antibodies after separation by electrophoresis.)

Here are results for one substance from patent US8569242B2, “Method of treating degenerative disorders of the nervous system” (The Regents of the University of California, priority 2005, dated 2013).

Entries after “also recorded” stand apart in the source; their conditions may differ.

As to “tyr-ser-met-lys-lys-thr-thr-met-lys-ile-ile-pro-phe-asn-arg-leu-thr-ile-gly (YSMKKTTMKIIPFNRLTIG) (listed as Homo sapiens) [γ^377-395 peptide]”, the “concentration shown to inhibit adhesion of Mac-1 overexpressing cells to immobilized fibrinogen” value in data set [1] is 200 µM. The “vaccinated mice that developed EAE” value in data set [2] (8/15, all control mice 15/15, 200 μg peptide in IFA four times before EAE induction) came to 53%. The “rotarod: increase in motor strength and coordination vs control mice” value in data set [2] (vaccinated mice) is 76%. Besides, the “histopathology index, brain” value in data set [2] (vaccinated mice, control 2.3±1) is listed as 1.5±2. For the same substance, in data set [2] (vaccinated mice, control 12±5.2), the “histopathology index, spinal cord” value was 6.5±5.9. Also, the average clinical score in data set [2] (vaccinated mice, control group 2.5, scale 0-5) was found to be 1.1. Further, in data set [3], the “peripheral immune cells (CD4, CD8, CD11b, CD11c, CD19, B220) in splenocytes” value is reported as “did not reveal any differences; also recorded: no significant effect”. The “effect on fibrin-mediated phosphorylation of Akt” value in data set [4] is reported as “specifically inhibit”; in data set [4] (listed as γ^377-395), “blocks”. For the same substance, the figures for the “effect on LPS-mediated phosphorylation of Akt” value in data set [4] and in data set [4] (listed as γ^377-395) were “not LPS-mediated” and “unaffected”, respectively.
